Laboratory results: ChEMBL document CHEMBL2016438, “Design and synthesis of naphthoquinone derivatives as antiproliferative agents and 20S proteasome inhibitors” (Bioorg Med Chem Lett, 2012)
pIC50: −log10 of the molar value. Active and inactive are the calls of the source. No cut-off for these calls is given here.

What was measured:
A549 [1] = assay: Antiproliferative activity against human A549 cells; type: functional, cell-based
[2] = Antiproliferative activity against human KBVIN cells; type: functional, cell-based
DU-145 [3] = assay: Antiproliferative activity against human DU145 cells; type: functional, cell-based
[4] = Inhibition of chymotrypsin-like activity of human 20s proteasome
HeLa-GFP = assay: Inhibition of proteasome in human HeLa-GFP cells at 10 ug/ml
KB [5] = assay: Antiproliferative activity against human KB cells; type: functional, cell-based
KB [6] = assay: Antiproliferative activity against human KB cells at 10 ug/ml; type: functional, cell-based
KBVIN = assay: Antiproliferative activity against human KBVIN cells at 10 ug/ml; type: functional, cell-based
DU-145 [7] = assay: Antiproliferative activity against human DU145 cells at 10 ug/ml; type: functional, cell-based
A549 [8] = assay: Antiproliferative activity against human A549 cells at 10 ug/ml; type: functional, cell-based

Row | pIC50 (A549 [1]) | pIC50 (DU-145 [3]) | pIC50 [4] | inhibition (HeLa-GFP) | pIC50 (KB [5]) | Structure (SMILES) | pIC50 [2] | inhibition (KB [6]) | inhibition (KBVIN) | inhibition (DU-145 [7]) | inhibition (A549 [8])
1 | 4.91 | 4.97 | 4.73 | inactive | 5.02 | O=C1C(Cl)=C(Nc2ccc(S(=O)(=O)Nc3ccccn3)cc2)C(=O)c2ccccc21 | 4.93 | – | – | – | –
2 | 4.90 | 4.86 | – | inactive | 4.85 | O=C1C(Cl)=C(Nc2ccc(C(=O)N3CCOCC3)cc2)C(=O)c2ccccc21 | 4.84 | – | – | – | –
3 | 4.73 | 4.80 | – | inactive | 4.89 | O=C1C(Cl)=C(Nc2ccc(N3CCOCC3)cc2)C(=O)c2ccccc21 | 4.85 | – | – | – | –
4 | – | – | 5.00 | – | – | CC(=O)N[C@@H](CSC(=O)[C@]1([C@@H](O)C(C)C)NC(=O)[C@H](C)[C@@H]1O)C(=O)O [LACTACYSTIN] | – | – | – | – | –
5 | 4.69 | 4.74 | – | inactive | 4.79 | O=C1C(Cl)=C(NCCCN2CCCC2=O)C(=O)c2ccccc21 | 4.72 | – | – | – | –
6 | 5.02 | 4.98 | – | inactive | 4.98 | COc1cc(NC(=O)c2ccc(NC3=C(Cl)C(=O)c4ccccc4C3=O)cc2)cc(OC)c1 | 4.95 | – | – | – | –
7 | 4.63 | 4.74 | 5.44 | Active | 4.78 | O=C1C(Cl)=C(Nc2ccc([N+](=O)[O-])cc2)C(=O)c2ccccc21 | 4.74 | – | – | – | –
8 | 5.54 | 5.34 | – | inactive | 5.09 | O=C1C(Cl)=C(Nc2ccc(Oc3ccccc3)cc2)C(=O)c2ccccc21 | 5.89 | – | – | – | –

Continued, compound first:

Row | Structure (SMILES) | pIC50 (A549 [1]) | pIC50 (DU-145 [3]) | pIC50 [4] | inhibition (HeLa-GFP) | pIC50 (KB [5]) | pIC50 [2] | inhibition (KB [6]) | inhibition (KBVIN) | inhibition (DU-145 [7]) | inhibition (A549 [8])
9 | COc1ccc(CC(=O)Nc2ccc(NC3=C(Cl)C(=O)c4ccccc4C3=O)cc2)cc1 | – | – | – | – | – | – | inactive | inactive | inactive | inactive
10 | O=C1C(Cl)=C(NCCN2CCOCC2)C(=O)c2ccccc21 | – | – | – | – | – | – | inactive | inactive | inactive | inactive
11 | O=C(Nc1ccc(NC2=C(Cl)C(=O)c3ccccc3C2=O)cc1)c1ccccn1 | – | – | – | – | – | – | inactive | inactive | inactive | inactive
12 | O=C(NCCc1ccccc1)c1ccc(NC2=C(Cl)C(=O)c3ccccc3C2=O)cc1 | – | – | – | – | – | – | inactive | inactive | inactive | inactive
13 | O=C1C(Cl)=C(NCCc2cccs2)C(=O)c2ccccc21 | – | – | – | – | – | – | inactive | inactive | inactive | inactive
14 | O=C1C(Cl)=C(Nc2ccc3c(c2)OCO3)C(=O)c2ccccc21 | – | – | – | – | – | – | inactive | inactive | inactive | inactive
15 | COc1ccc(C(=O)Nc2ccc(NC3=C(Cl)C(=O)c4ccccc4C3=O)cc2)cc1 | – | – | – | – | – | – | inactive | inactive | inactive | inactive
16 | O=C(Nc1ccccn1)c1ccc(NC2=C(Cl)C(=O)c3ccccc3C2=O)cc1 | – | – | – | – | – | – | inactive | inactive | inactive | inactive
